In ChEMBL document CHEMBL1148873, “Carbonic anhydrase inhibitors: the beta-carbonic anhydrase from Helicobacter pylori is a new target for sulfonamide and sulfamate inhibitors” (Bioorg Med Chem Lett, 2007):

Legend:
Helicobacter pylori [1] = system: Helicobacter pylori
Description: Inhibition of Helicobacter pylori alpha carbonic anhydrase by stopped-flow CO2 hydrase assay

Helicobacter pylori [2] = system: Helicobacter pylori; remark: listed apart in the source
Description: Inhibition of Helicobacter pylori beta carbonic anhydrase by stopped-flow CO2 hydrase assay

[3] = molecular target: Carbonic anhydrase 1 (Homo sapiens) (UniProt P00915)
Description: Inhibition of human carbonic anhydrase 1 by stopped-flow CO2 hydrase assay

[4] = molecular target: Carbonic anhydrase 2 (Homo sapiens) (UniProt P00918)
Description: Inhibition of human carbonic anhydrase 2 by stopped-flow CO2 hydrase assay

Sequence of Carbonic anhydrase 1 (Homo sapiens) (P00915 2-261 limits assumed): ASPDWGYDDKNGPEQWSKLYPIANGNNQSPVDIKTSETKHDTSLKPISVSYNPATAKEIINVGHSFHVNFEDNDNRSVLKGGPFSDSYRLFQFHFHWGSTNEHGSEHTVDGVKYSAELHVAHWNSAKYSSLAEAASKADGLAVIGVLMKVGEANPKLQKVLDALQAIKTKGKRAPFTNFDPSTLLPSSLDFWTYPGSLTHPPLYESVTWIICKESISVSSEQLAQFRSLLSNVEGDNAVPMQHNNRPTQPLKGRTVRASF

Nc1ccc(S(=O)(=O)NCCc2ccc(S(N)(=O)=O)cc2)cc1 was tested, and the Kinact (Helicobacter pylori [1]) was 114 nM and the Kinact (Helicobacter pylori [2]) was 71 nM.
CC(C)(C)c1ccc(S(=O)(=O)NCc2ccc(S(N)(=O)=O)cc2)cc1 showed a Kinact [3] of 12.2 µM, a Kinact [4] of 104 nM and a Kinact (Helicobacter pylori [1]) of 31 nM. It also gave a Kinact (Helicobacter pylori [2]) of 96 nM.
Work on Nc1nccc(Nc2ccc(S(N)(=O)=O)cc2)n1 yielded a Kinact (Helicobacter pylori [1]) of 84 nM and a Kinact (Helicobacter pylori [2]) of 38 nM.
Compound Nc1ccc(S(=O)(=O)Nc2nnc(S(N)(=O)=O)s2)cc1 has a Kinact (Helicobacter pylori [1]) of 268 nM and a Kinact (Helicobacter pylori [2]) of 64 nM.
For NS(=O)(=O)c1nnc(-c2ccccc2Cl)s1, the Kinact [3] was 0.69 µM and the Kinact (Helicobacter pylori [2]) was 37 nM.
Nc1ccc(S(N)(=O)=O)cc1Cl showed a Kinact (Helicobacter pylori [1]) of 378 nM and a Kinact (Helicobacter pylori [2]) of 1460 nM.
Compound CC(C)(C)c1ccc(C(=O)Nc2nnc(S(N)(=O)=O)s2)cc1 has a Kinact [3] of 0.541 µM, a Kinact (Helicobacter pylori [1]) of 13 nM and a Kinact (Helicobacter pylori [2]) of 28 nM.
Work on CC(C)(C)c1ccc(S(=O)(=O)Nc2cccc(S(N)(=O)=O)c2)cc1 yielded a Kinact [3] of 9.62 µM, a Kinact (Helicobacter pylori [1]) of 318 nM and a Kinact (Helicobacter pylori [2]) of 213 nM.
Nc1ccc(S(N)(=O)=O)cc1I gave a Kinact [3] of 6 µM, a Kinact (Helicobacter pylori [1]) of 510 nM and a Kinact (Helicobacter pylori [2]) of 1150 nM.
Nc1ccccc1S(N)(=O)=O gave a Kinact (Helicobacter pylori [1]) of 426 nM and a Kinact (Helicobacter pylori [2]) of 16400 nM.
In the case of NS(=O)(=O)c1ccc(CO)cc1, the Kinact (Helicobacter pylori [1]) is reported as 876 nM and the Kinact (Helicobacter pylori [2]) is reported as 236 nM.
In the case of CC(C)(C)c1ccc(C(=O)NCc2ccc(S(N)(=O)=O)cc2)cc1, the Kinact [3] is reported as 12.3 µM, the Kinact [4] is reported as 241 nM and the Kinact (Helicobacter pylori [1]) is reported as 539 nM. It also gave a Kinact (Helicobacter pylori [2]) of 101 nM.
With CCN[C@H]1CN(CCCOC)S(=O)(=O)c2sc(S(N)(=O)=O)cc21 the Kinact (Helicobacter pylori [1]) was 210 nM and the Kinact (Helicobacter pylori [2]) was 128 nM.
CC(C)(C)c1ccc(S(=O)(=O)Nc2ccccc2S(N)(=O)=O)cc1 gave a Kinact [3] of 14.7 µM, a Kinact [4] of 295 nM and a Kinact (Helicobacter pylori [1]) of 640 nM. The Kinact (Helicobacter pylori [2]) was 24800 nM.
CC(C)(C)c1ccc(C(=O)Nc2cccc(S(N)(=O)=O)c2)cc1 was tested, and the Kinact [3] was 10.8 µM, the Kinact (Helicobacter pylori [1]) was 316 nM and the Kinact (Helicobacter pylori [2]) was 241 nM.
Cc1ccc(S(N)(=O)=O)cc1 was tested, and the Kinact [3] was 78.5 µM, the Kinact (Helicobacter pylori [1]) was 430 nM and the Kinact (Helicobacter pylori [2]) was 2470 nM.
Nc1ccc(S(=O)(=O)NCc2ccc(S(N)(=O)=O)cc2)cc1 gave a Kinact (Helicobacter pylori [1]) of 131 nM and a Kinact (Helicobacter pylori [2]) of 87 nM.
Compound CC(C)(C)c1ccc(S(=O)(=O)NCCc2ccc(S(N)(=O)=O)cc2)cc1 has a Kinact [3] of 12 µM, a Kinact [4] of 94 nM and a Kinact (Helicobacter pylori [1]) of 27 nM. For the same compound, the Kinact (Helicobacter pylori [2]) was 45 nM.
CC(C)(C)c1ccc(S(=O)(=O)Nc2nnc(S(N)(=O)=O)s2)cc1 was tested, and the Kinact [3] was 0.338 µM, the Kinact (Helicobacter pylori [1]) was 12 nM and the Kinact (Helicobacter pylori [2]) was 24 nM.
With Nc1ccc(S(N)(=O)=O)cc1F the Kinact (Helicobacter pylori [1]) was 1230 nM and the Kinact (Helicobacter pylori [2]) was 1360 nM.
CC(C)(C)c1ccc(C(=O)Nc2ccc(S(N)(=O)=O)cc2)cc1 showed a Kinact [3] of 14.2 µM, a Kinact (Helicobacter pylori [1]) of 79 nM and a Kinact (Helicobacter pylori [2]) of 158 nM.
CC(C)(C)c1ccc(S(=O)(=O)Nc2ccc(S(N)(=O)=O)cc2)cc1 was tested, and the Kinact [3] was 13 µM, the Kinact (Helicobacter pylori [1]) was 60 nM and the Kinact (Helicobacter pylori [2]) was 150 nM.
Compound CC(=O)/N=c1/sc(S(N)(=O)=O)nn1C has a Kinact (Helicobacter pylori [1]) of 225 nM and a Kinact (Helicobacter pylori [2]) of 176 nM.
For Nc1ccc(S(N)(=O)=O)cc1Br, the Kinact (Helicobacter pylori [1]) was 452 nM and the Kinact (Helicobacter pylori [2]) was 1240 nM.
NNc1ccc(S(N)(=O)=O)cc1 gave a Kinact [3] of 28 µM and a Kinact (Helicobacter pylori [2]) of 8650 nM.
NCc1ccc(S(N)(=O)=O)cc1 gave a Kinact (Helicobacter pylori [1]) of 873 nM and a Kinact (Helicobacter pylori [2]) of 2360 nM.
Compound NS(=O)(=O)c1ccc(C(=O)O)cc1 has a Kinact (Helicobacter pylori [1]) of 1050 nM and a Kinact (Helicobacter pylori [2]) of 450 nM.
CC(C)(C)c1ccc(C(=O)NCCc2ccc(S(N)(=O)=O)cc2)cc1 showed a Kinact [3] of 13.3 µM, a Kinact [4] of 127 nM and a Kinact (Helicobacter pylori [1]) of 62 nM. For the same compound, the Kinact (Helicobacter pylori [2]) was 44 nM.
Compound CC(C)(C)c1ccc(C(=O)Nc2ccccc2S(N)(=O)=O)cc1 has a Kinact [3] of 12.3 µM, a Kinact (Helicobacter pylori [1]) of 539 nM and a Kinact (Helicobacter pylori [2]) of 23500 nM.
Cn1nc(S(N)(=O)=O)sc1=N was tested, and the Kinact (Helicobacter pylori [1]) was 549 nM and the Kinact (Helicobacter pylori [2]) was 768 nM.
